Experimental data taken from PubChem BioAssay (NCI).
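Five compound concentrations were applied to cells in 96-well plates for 48 hours; endpoints were derived by simple linear interpolation of the resulting dose-response curve. GI50 marks 50% less growth. TGI: total growth inhibition.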

tested on: MDA-MB-468 breast; test: inhibition of tumour cell growth, NCI panel, 48 h

SMILES | GI50 | TGI
COc1cc(NCc2ccccc2O)c2ncccc2c1 | 15.4 µM | 50.4 µM
[C-]#[N+][C@]12C(=O)[C@H](CCC1(C)C)C(C)(C)[C@H]1C(=O)N(C)c3cccc2c31 | 4.02 µM | > 100 µM
Cc1ccc(C2CC(c3ccc(Nc4nc(NCCO)nc(Nc5ccc(Cl)cc5)n4)cc3)=Nc3c(N)nc(N)nc3N2)cc1 (configuration not stated) | 1.65 µM | 3.17 µM
CC(C)(C)OC(=O)CN1CCc2c(sc3ncnc(N/N=C/c4cccc5ccccc45)c23)C1 | 3.9 µM | 16.3 µM
O=C(CNc1ncco1)Nc1ccc(S(=O)(=O)c2ccc(NC(=O)CNc3ncco3)cc2)cc1 | 1.44 µM | 3.16 µM
Cc1cccc2c1O/C(=C\c1ccc([N+](=O)[O-])o1)C2=O | 1.29 µM | 2.99 µM
CS(=O)(=O)CCn1c(=O)c(Oc2ccc(F)cc2F)cc2cnc(NC3CCOCC3)nc21 | > 25 µM | > 25 µM
COc1ccc2c(c1)cn1c3ccc(O)cc3[nH]c(=O)c21 | 0.236 µM | 1.09 µM
CCOC(=O)N[C@H]1CCc2c(Br)c(OC)c(OC)c(OC)c2-c2ccc(SC)c(=O)cc21 | < 0.01 µM | 16.8 µM
C/C1=C/C(=O)O[C@@H]2C[C@@H](CC[C@H](C)/C=C\C=C\CC1)O[C@@](OCCc1ccccc1)([C@@H]1CSC(=O)N1)C2 | 0.0292 µM | 0.135 µM
COc1cc(-c2cc(/C=C3\C(=O)Nc4ccccc43)[nH]n2)cc(OC)c1OC | 2.88 µM | 13.4 µM
NC(=S)N/N=C\c1nccc2c(N)cccc12 | 0.226 µM | 0.717 µM
COc1ccc(-c2nnc(N3CCN(C(=O)CN4CCN(c5ccc(Cl)cc5)CC4)CC3)nc2-c2ccc(OC)cc2)cc1 | 17.9 µM | 48.3 µM
Cc1nc2cc(Nc3nc(Nc4ccc(F)cc4)nc(N4CCN(C)CC4)n3)ccc2n1Cc1ccccc1 | 1.43 µM | 3.44 µM
CCN(CC)CCOc1ccc2c(c1)C(=O)c1cc(OCCN(CC)CC)ccc1-2 | 2.64 µM | 8.53 µM
Nc1ccc2ccc(NS(=O)(=O)N3CCCCC3)cc2c1 | 0.194 µM | > 100 µM
C[C@@H](Oc1ccc2[nH]nc(/C=C/c3cnn(CCO)c3)c2c1)c1c(Cl)cncc1Cl | 1.37 µM | 3.11 µM
O=C1C(=O)c2ccccc2C(O)=C1CC=C(Cl)Cl | 15.8 µM | 59 µM
Cc1cc(C)n(C(=O)c2nn(-c3ccc(Cl)cc3)cc2O)n1 | 8.9 µM | > 100 µM
CNC(=O)OC1C(O[C@H]2C[C@H]3[C@@H]4CC=C5C[C@@H](O)CC[C@]5(C)[C@H]4CC[C@]3(C)[C@H]2[C@H](C)C(=O)CCC(C)C)OCC(O)C1OC1OCC(O)C(O)C1OC(=O)c1ccc(OC)cc1 (some centres not stated) | 0.027 µM | 2.96 µM

SMILES | GI50 | TGI
Oc1c(I)cc(-c2nc3ccccc3s2)cc1CN(Cc1ccccn1)Cc1ccccn1 | 0.531 µM | 5.25 µM
Cc1cc2c(-c3ccc(NC(=O)[C@H](N)CC(C)(C)C)cc3C)ccnc2[nH]1 | 2.73 µM | 10.6 µM
O=S(=O)(NCCNc1cc(-c2cn(-c3ccccc3)nc2-c2cccc(O)c2)ccn1)c1ccc(Cl)cc1 | 2.78 µM | 7.66 µM
CN(C)CCCOc1c2ccccc2nc2c1oc1ccc(Cl)cc12 | 2.95 µM | 8.8 µM
CCCCCCCCCCCCCC(=O)C(C)N (configuration not stated) | 3.31 µM | 9.51 µM
O=C(O)c1cc(Cc2ccc(O)c(C(=O)O)c2)ccc1O (tested in a mixture with another compound) | 2.57 µM | 14.4 µM
COc1ccc(CC(NC(=O)[C@H](C)NC(=O)CN2CCOCC2)C(=O)N[C@@H](Cc2ccccc2)C(=O)[C@@]2(C)CO2)cc1 (some centres not stated) | 0.174 µM | 0.595 µM
CCCCCCNc1nc(N2CCOCC2)c2[nH]c(NCCCCCC)nc2n1 | 1.38 µM | 2.7 µM
CC(CN1CCN(CC(C)Nc2ccnc3cc(Cl)ccc23)CC1)Nc1ccnc2cc(Cl)ccc12 (configuration not stated) | 2.97 µM | 9.55 µM
CN1CCN(c2ccc(NC3=C(Cl)C(=O)c4ncccc4C3=O)cc2C#N)CC1 | 0.414 µM | 1.9 µM
CCO/C=N/C1=C(C#N)C(c2ccc(F)cc2)c2sc3c(C)cccc3c2O1 (configuration not stated) | 0.504 µM | 17.1 µM
O=C(Nc1ccccc1O)c1ccc(CNC(=O)c2sccc2Nc2ccnc(C(F)(F)F)c2)cc1 | 2.01 µM | 5.9 µM
C1=C(c2ccccc2)C(c2ccc(OCCN3CCCCC3)cc2)Oc2ccccc21 (configuration not stated) | 1.54 µM | 3 µM
Cc1ccc2c(c1)O/C(=C\c1ccc([N+](=O)[O-])o1)C2=O | 1.56 µM | 3.5 µM
Cc1cc(C)cc(Nc2ccc([N+](=O)[O-])c(NCCN3CCOCC3)n2)c1 | 0.000419 µM | –
C(=C\c1nccc2c1[nH]c1ccccc12)/c1ccccc1 | 2.04 µM | 7.91 µM
COc1cc(C2=NN(c3ccc(S(N)(=O)=O)cc3)C(c3ccc(Cl)cc3)C2)cc(OC)c1OC (configuration not stated) | 2.88 µM | > 100 µM
COc1ccc(/C=C/C(=O)c2cc3c(N)c(C(=O)Nc4ccccc4C)sc3nc2C)cc1 | 0.167 µM | > 50 µM
C#Cc1cccc(Oc2ccc(NC(=O)CCl)cc2)c1 | 77.9 µM | > 82.5 µM
